{
  "source": "ChEMBL document CHEMBL1151294",
  "about": "“Evaluation of limonoids against the murine P388 lymphocytic leukemia cell line” (J Nat Prod, 1983)",
  "type_in_all_cases": "functional, organism-based",
  "key": {"[1]": {"system": "P388", "test": "In vivo antitumor activity against mouse P388 cells at 0.75 to 6 mg"}, "[2]": {"system": "P388", "test": "In vivo antitumor activity against mouse P388 cells at 0.5 to 4 mg"}, "[3]": {"system": "P388", "test": "In vivo antitumor activity against mouse P388 cells at 2 to 200 mg"}, "[4]": {"system": "P388", "test": "In vivo antitumor activity against mouse P388 cells at 0.37 to 6 mg"}, "[5]": {"system": "P388", "test": "In vivo antitumor activity against mouse P388 cells at 0.75 to 12 mg"}, "[6]": {"system": "P388", "test": "In vivo antitumor activity against mouse P388 cells at 1.5 to 24 mg"}, "[7]": {"system": "P388", "test": "In vivo antitumor activity against mouse P388 cells at 0.5 to 8 mg"}, "[8]": {"system": "P388", "test": "In vivo antitumor activity against mouse P388 cells at 2.5 to 40 mg"}, "[9]": {"system": "P388", "test": "In vivo antitumor activity against mouse P388 cells at 1.5 to 12 mg"}, "[10]": {"system": "P388", "test": "In vivo antitumor activity against mouse P388 cells at 3.7 to 7.5 mg"}, "[11]": {"system": "P388", "test": "In vivo antitumor activity against mouse P388 cells at 0.25 to 2 mg"}, "[12]": {"system": "P388", "test": "In vivo antitumor activity against mouse P388 cells at 3 to 24 mg"}, "[13]": {"system": "P388", "test": "In vivo antitumor activity against mouse P388 cells at 0.03 to 2 mg"}, "[14]": {"system": "P388", "test": "In vivo antitumor activity against mouse P388 cells at 5 to 20 mg"}, "[15]": {"system": "P388", "test": "In vivo antitumor activity against mouse P388 cells at 1.25 to 2.5 mg"}, "[16]": {"system": "P388", "test": "In vivo antitumor activity against mouse P388 cells at 1.25 to 10 mg"}, "[17]": {"system": "P388", "test": "In vivo antitumor activity against mouse P388 cells at 0.01 to 2.4 mg"}},
  "note": "The source made the active and inactive calls. The rule behind the calls is not given here.",
  "data": [
    {"compound": "CC(C)(O)[C@@H]1CC(=O)[C@]2(C)[C@H](CC[C@@]3(C)[C@@H](c4ccoc4)OC(=O)[C@H]4O[C@]432)[C@@]1(C)/C=C\\C(=O)O", "values": [
      {"measurement": "Activity", "setting": "[1]", "value": "inactive"}
    ]},
    {"compound": "CC1=C2CC(=O)O[C@H](c3ccoc3)[C@]2(C)CC[C@@H]1[C@@]12COC(=O)C[C@@H]1OC(C)(C)C2CC(=O)O", "note": "(stereo partly drawn)", "values": [
      {"measurement": "Activity", "setting": "[2]", "value": "inactive"}
    ]},
    {"compound": "C=C1[C@@H]2CC[C@@]3(C)[C@H](c4ccoc4)OC(=O)C[C@]13O[C@H]1CC(=O)C(C)(C)[C@H](CC(=O)OC)[C@]12C", "values": [
      {"measurement": "Activity", "setting": "[3]", "value": "inactive"}
    ]},
    {"compound": "COC(=O)[C@@]1(C)CCC[C@]2(C)C3=C(CC[C@@H]12)C(=O)c1occc1CC3", "values": [
      {"measurement": "Activity", "setting": "[4]", "value": "inactive"}
    ]},
    {"compound": "CC(=O)OC1=C2C(C)(C)O[C@H]3CC(=O)OC[C@@]23[C@H]2CC[C@@]3(C)[C@@H](c4ccoc4)OC(=O)[C@H]4O[C@]43[C@]2(C)C1=O", "values": [
      {"measurement": "Activity", "setting": "[2]", "value": "inactive"}
    ]},
    {"compound": "CC(=O)OC1[C@@H]2[C@@]3(C)C=C[C@@H](O)[C@](C)(OC(C)=O)[C@@H]3C[C@@H](OC(C)=O)[C@@]2(C)[C@]23O[C@@H]2CC(c2ccoc2)[C@]3(C)[C@H]1OC(=O)C(C)C", "note": "(single isomer, unassigned)", "values": [
      {"measurement": "Activity", "setting": "[5]", "value": "inactive"}
    ]},
    {"compound": "CC1(C)C(=O)C=C[C@]2(C)[C@H]3CC[C@@]4(C)[C@H](c5ccoc5)OC(=O)[C@H]5O[C@]54[C@]3(C)C(=O)C[C@@H]12", "values": [
      {"measurement": "Activity", "setting": "[6]", "value": "inactive"}
    ]},
    {"compound": "CC1(C)O[C@H]2CC(=O)OC[C@]23[C@H]2CC[C@@]4(C)[C@@H](c5ccoc5)OC(=O)[C@H]5O[C@]54[C@]2(C)[C@@H](O)C[C@@H]13", "values": [
      {"measurement": "Activity", "setting": "[1]", "value": "inactive"}
    ]},
    {"compound": "CC1(C)O[C@H]2CC(=O)OC[C@]23[C@H]2CC[C@@]4(C)[C@@H](c5ccoc5)OC(=O)[C@H]5O[C@]54[C@]2(C)[C@@H](OC(=O)CCl)C[C@@H]13", "values": [
      {"measurement": "Activity", "setting": "[7]", "value": "inactive"}
    ]},
    {"compound": "CC1(C)C(=O)CC[C@]2(C)[C@H]3CC[C@@]4(C)[C@H](c5ccoc5)OC(=O)[C@H]5O[C@]54[C@]3(C)C(=O)C[C@@H]12", "values": [
      {"measurement": "Activity", "setting": "[7]", "value": "inactive"}
    ]},
    {"compound": "CC(=O)O[C@@H]1C[C@H]2C(C)(C)C(=O)C=C[C@]2(C)[C@H]2CC[C@]3(C)C(=CC(=O)O[C@H]3c3ccoc3)[C@@]21C", "values": [
      {"measurement": "Activity", "setting": "[8]", "value": "inactive"}
    ]},
    {"compound": "CC1(C)O[C@H]1[C@H]1C[C@@H]([C@@H]2CC[C@]3(C)C4=CC[C@H]5C(C)(C)C(=O)CC[C@]5(C)[C@H]4CC[C@@]23C)[C@H](O)O1", "values": [
      {"measurement": "Activity", "setting": "[9]", "value": "inactive"}
    ]},
    {"compound": "C=C1[C@@H]([C@@]2(C)[C@@H](OC(C)=O)CC(=O)O[C@](C)(COC(C)=O)[C@@H]2C(=O)OC)[C@@H](OC=O)[C@H](OC(=O)[C@H](O)[C@H](C)CC)[C@@]2(C)[C@H](c3ccoc3)CC(=O)[C@]12O", "values": [
      {"measurement": "Activity", "setting": "[10]", "value": "inactive"}
    ]},
    {"compound": "CC1(C)O[C@H]2CC(=O)OC[C@@]23C1=C(O)C(=O)[C@]1(C)[C@@H]3CC[C@@]2(C)[C@@H](c3ccoc3)OC(=O)[C@H]3O[C@]321", "values": [
      {"measurement": "Activity", "setting": "[2]", "value": "inactive"}
    ]},
    {"compound": "CC(=O)O[C@@H]1C[C@H](O)[C@@]23CO[C@H](O)[C@]1(C)[C@@H]2C[C@@H](O)[C@]1(C)[C@@H]3C(=O)C[C@@]2(C)[C@H](c3ccoc3)C[C@H]3O[C@]312", "values": [
      {"measurement": "Activity", "setting": "[11]", "value": "inactive"}
    ]},
    {"compound": "CC(=O)O[C@@H]1C[C@@H]2[C@](C)(C=C[C@@H](O)[C@]2(C)OC(C)=O)[C@H]2C(=O)[C@H](OC(C)=O)[C@@]3(C)C(c4ccoc4)C[C@H]4O[C@@]43[C@@]21C", "note": "(single isomer, unassigned)", "values": [
      {"measurement": "Activity", "setting": "[5]", "value": "inactive"}
    ]},
    {"compound": "CC(=O)O[C@@H]1C[C@@]2(C)[C@H](c3ccoc3)C[C@H]3O[C@]32[C@]2(C)C(=O)C(O)=C3C(C)(C)C(=O)C=C[C@]3(C)C12", "note": "(stereo partly drawn)", "values": [
      {"measurement": "Activity", "setting": "[12]", "value": "inactive"}
    ]},
    {"compound": "C[C@H]1CC[C@@]23COC(=O)C2=CCC[C@@H]3[C@@]12C[C@H](c1ccoc1)OC2=O", "values": [
      {"measurement": "Activity", "setting": "[13]", "value": "inactive"}
    ]},
    {"compound": "CC(=O)O[C@@H]1C[C@H](O)[C@@]23CO[C@H](O)[C@]1(C)[C@@H]2C[C@@H](O)[C@]1(C)[C@@H]3C(=O)[C@H](O)[C@@]2(C)[C@H](c3ccoc3)C[C@H]3O[C@@]321", "values": [
      {"measurement": "Activity", "setting": "[14]", "value": "Toxic"},
      {"measurement": "Activity", "setting": "[15]", "value": "inactive"}
    ]},
    {"compound": "CC1(C)O[C@@H](CC(=O)O)[C@]23CO[C@H](C(=O)[C@]4(C)[C@@H]2CC[C@@]2(C)[C@H]([C@H]5CCOC5)OC(=O)[C@H]5O[C@]524)[C@H]13", "values": [
      {"measurement": "Activity", "setting": "[2]", "value": "inactive"}
    ]},
    {"compound": "CC(=O)O[C@H]1[C@@H](OC(C)=O)[C@]2(C)[C@H](CC[C@]3(C)[C@H](c4ccoc4)C[C@@H]4O[C@]423)[C@@]2(C)C=CC(=O)OC(C)(C)[C@H]12", "values": [
      {"measurement": "Activity", "setting": "[16]", "value": "inactive"}
    ]},
    {"compound": "CC1(C)O[C@@H](CC(=O)O)[C@]23CO[C@H](C(=O)[C@]4(C)[C@@H]2CC[C@@]2(C)[C@@H](c5ccoc5)OC(=O)[C@H]5O[C@]524)[C@H]13", "values": [
      {"measurement": "Activity", "setting": "[1]", "value": "inactive"}
    ]},
    {"compound": "C[C@]12C[C@H](c3ccoc3)OC(=O)[C@@H]1CC[C@@]13COC(=O)C1=CCC[C@@H]32", "values": [
      {"measurement": "Activity", "setting": "[11]", "value": "inactive"}
    ]},
    {"compound": "CC1(C)C(=O)C=C[C@]2(C)[C@H]3CC[C@@]4(C)[C@H](c5ccoc5)OC(=O)[C@H]5O[C@]54[C@]3(C)[C@H](O)C[C@@H]12", "values": [
      {"measurement": "Activity", "setting": "[6]", "value": "inactive"}
    ]},
    {"compound": "CC1(C)O[C@H]2CC(=O)OC[C@@]23[C@H]1CC(=O)[C@@]1(C)C2=CC(=O)O[C@H](c4ccoc4)[C@]2(C)CC[C@@H]13", "values": [
      {"measurement": "Activity", "setting": "[2]", "value": "inactive"}
    ]},
    {"compound": "CC1(C)OC(=O)C=C[C@]2(C)[C@H]3CC[C@]4(C)[C@H](c5ccoc5)C[C@@H]5O[C@@]54[C@]3(C)C(=O)[C@H](O)[C@@H]12", "values": [
      {"measurement": "Activity", "setting": "[16]", "value": "inactive"}
    ]},
    {"compound": "CC(=O)O[C@@H]1C[C@H](O)[C@@]23CO[C@H](O)[C@]1(C)[C@@H]2C[C@@H](O)[C@@]1(C)[C@@H]2C(=O)C[C@@H](c4ccoc4)[C@]2(C)CC(=O)[C@@H]13", "values": [
      {"measurement": "Activity", "setting": "[17]", "value": "inactive"}
    ]}
  ]
}
